Experiments:
[1] = tested on: mesenchymal-like carcinoma cells; assay: Unfolding of pre-folded isotropic reconstituted tissues after ablating actuator cells; assay type: cell-based
Method: (§1) Blebbistatin (Abcam ab120491) and staurosporine (Sigma-Aldrich S5921) were added to cell media at the indicated concentrations by serial dilution from 10 mM DMSO stocks.
Curvatures reported for cap reconstituted tissues were generated by radially reslicing and thresholding in ImageJ after manually picking the center of reconstituted tissues to serve as origin points. Radial slices were read into MATLAB and least-squares fitted to circles. Anisotropic curvatures were similarly generated for the indicated cutting planes and folds.

[2] = tested on: mesenchymal-like carcinoma cells; assay: Efficacy of staurosporine on cells cultured on standard tissue culture plastic (cell viability); assay type: cell-based; details: 20 μM, n=6
Method: as §1

explanted guts = assay: Cell clustering and collagen 1 remodeling in explanted embryonic guts; details: explanted guts of embryonic mice treated with inhibitor; results not shown
Method: as §1
(§2) FIG. 21. (A). Gut villi in embryonic mice form in concert with condensation of PDGFR-positive mesenchymal fibroblasts at sites of villus curvature. These clusters are associated with local alignment and compaction of collagen 1 fibrils against the E-cadherin-positive epithelium. […] B) Feather buds in embryonic chickens form from a flat epithelium, and can be visualized with non-specific ethidium bromide staining Chick skin explants at Hamburger-Hamilton (HH) stage 32 form feather buds in culture, but feather bud spacing and height are disrupted in the presence of blebbistatin.

Chick skin explants = assay: Feather bud formation in chick skin explants in culture; design: species or system chickens; details: chick skin explants at Hamburger-Hamilton (HH) stage 32 in culture
Method: as §1, §2

CN[C@@H]1C[C@H]2O[C@@](C)([C@@H]1OC)n1c3ccccc3c3c4c(c5c6ccccc6n2c5c31)C(=O)NC4 [staurosporine]
pre-folded isotropic tissue curvatures (maximum curvature relative to average maximum curvature prior to addition) ([1]; 20 μM, n=4 reconstituted tissues per condition): modest reductions | unfolding of pre-folded tissues ([1]; upon inducing apoptosis of condensing cells using staurosporine (FIG. 13)): less than 40% | cell death (cell viability) [2]: nearly complete cell death

Cc1ccc2c(c1)C(=O)C1(O)CCN(c3ccccc3)C1=N2 (centres unmarked) [blebbistatin]
cell clustering and collagen 1 remodeling (explanted guts): does not occur | feather bud spacing and height (Chick skin explants): disrupted

Reference: patent publication US10920190B2, “Folding biological tissue via programmed cellular contractility” (The Regents of the University of California, priority 2016, dated 2021)
